Literature values as cited in patent US20260098286A1, “Low Dose Psilocybin in Foodstuff and Microbes for Same” (ATX PHARMERS LLC, priority 2021, published 2026).

How the values were obtained:
[1] = adults
[2] = degrades in the presence of oxygen
[3] = test system: human serotonin-related receptors
[4] = in vivo
[5] = weight per weight basis
[6] = not given; remark: listed apart in the source

SMILES | blood plasma concentration at which psychological effects occur [1] | psilocin concentrations in the plasma (average) ([1]; within 2 hours after single 15 mg oral psilocybin dose) | stability in solution [2] | number of human serotonin-related receptors bound [3] | toxicity [4] | detectability in the urine (after 7 days) | ingested psilocybin absorbed through the stomach and intestine (animal studies) | absorbed psilocybin excreted in the bile and feces (within 24 hours) | absorbed psilocybin excreted into the urine (within 24 hours) | potency relative to LSD (times less potent) [5] | effects begin after ingestion ([6]; after ingestion) [min] | effects last ([6]; depending on dose, species, and individual metabolism) [h] | half-life of psilocybin ([6]; taken orally) [h]
CN(C)CCc1c[nH]c2cccc(O)c12 [psilocin] | 4-6 μg/liter | about 8 μg/liter | relatively unstable | over 15 | – | – | – | – | – | – | – | – | –
CN(C)CCc1c[nH]c2cccc(OP(=O)(O)O)c12 [psilocybin, 4-phosphoryloxy-N,N-dimethyltryptamine] | – | – | – | – | low toxicity | still detectable | about 50% | 15-20% | about 65% | about 100 times | 10 to 40 | 2 to 6 | 2.72 ± 1.07
